Assay results as given in patent US20230140635A1, “3-(2-(Aminoethyl)-Indol-4-ol Derivatives, Methods of Preparation Thereof, and the Use as 5-HT2 Receptor Modulators” (priority 2020, published 2023).
pEC50, pIC50, pKi: −log10 of the molar value. Counter-ions that a name gives are not always drawn. Like-named read-outs stand apart in the source and are kept apart here.

What was measured:
5-HT2C [1] = target: T1, 5-HT2C (Homo sapiens, UniProt P28335); experiment: cell-based; set-up: expressed in transfected cells; host or cells: HEK293T; details: for Emax: read-out: % efficacy vs 5-HT@ 100%, 5-HT2C; for IC50: HEK293T cells, 1 hour at 37° C., read-out: IC50 nM 5-HT2 Gq Dissociation BRET assay, 5-HT2C
T1 sequence (P28335 33-458): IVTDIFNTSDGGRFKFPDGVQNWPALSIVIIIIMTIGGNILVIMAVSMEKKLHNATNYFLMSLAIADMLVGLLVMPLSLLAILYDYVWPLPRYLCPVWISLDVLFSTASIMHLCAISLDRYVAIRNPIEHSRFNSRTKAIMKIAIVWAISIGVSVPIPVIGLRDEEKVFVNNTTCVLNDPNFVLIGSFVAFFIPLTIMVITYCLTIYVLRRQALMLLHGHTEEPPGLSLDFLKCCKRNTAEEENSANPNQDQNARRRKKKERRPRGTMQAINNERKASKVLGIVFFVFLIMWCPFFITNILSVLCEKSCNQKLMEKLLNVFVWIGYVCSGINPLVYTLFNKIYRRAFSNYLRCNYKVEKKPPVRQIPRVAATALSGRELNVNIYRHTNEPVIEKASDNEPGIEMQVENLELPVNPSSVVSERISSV

5-HT2A [2] = target: T2, 5-HT2A (Homo sapiens, UniProt P28223); experiment: 5-HT2 Gq-Dissociation BRET assay; type: cell-based; set-up: expressed in transfected cells; host or cells: HEK293T; details: for Emax: read-out: % efficacy vs 5-HT@ 100%, 5-HT2A; for IC50: HEK293T cells, 1 hour at 37° C.
5-HT2B [3] = target: T3, 5-HT2B (Homo sapiens, UniProt P41595); experiment: cell-based; type: cell-based; set-up: expressed in transfected cells; host or cells: HEK293T; details: for Emax: 1 h, read-out: % efficacy vs 5-HT@ 100%, 5-HT2B; for IC50: HEK293T cells, 1 hour at 37° C., read-out: IC50 nM 5-HT2 Gq Dissociation BRET assay, 5-HT2B
5-HT2C [4] = target: T1, 5-HT2C; details: read-out: agonist potency at human 5-HT2C receptor; cited from earlier work
patients = details: cited from earlier work
5-HT2A [5] = target: T2, 5-HT2A; details: relative to serotonin at 100%; cited from earlier work
5-HT2B [6] = target: T3, 5-HT2B; details: relative to serotonin at 100%; cited from earlier work
5-HT3 = target: T4, 5-HT3 (Homo sapiens, UniProt P46098); details: read-out: Ki 5-HT3; cited from earlier work
T4 sequence (P46098 24-478): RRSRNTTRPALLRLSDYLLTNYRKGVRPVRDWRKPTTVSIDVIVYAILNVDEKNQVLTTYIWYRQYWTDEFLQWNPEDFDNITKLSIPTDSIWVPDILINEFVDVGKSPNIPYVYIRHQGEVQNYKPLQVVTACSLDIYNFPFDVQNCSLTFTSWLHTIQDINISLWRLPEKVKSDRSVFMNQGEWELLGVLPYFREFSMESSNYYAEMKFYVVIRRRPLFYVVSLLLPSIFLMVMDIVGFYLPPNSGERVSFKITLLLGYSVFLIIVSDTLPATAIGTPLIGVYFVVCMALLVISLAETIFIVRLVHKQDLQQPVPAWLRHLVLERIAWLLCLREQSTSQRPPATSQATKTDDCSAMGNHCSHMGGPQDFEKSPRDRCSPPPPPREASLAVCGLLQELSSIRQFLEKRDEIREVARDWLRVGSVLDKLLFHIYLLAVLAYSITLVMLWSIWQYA

dopamine receptors = details: cited from earlier work

T3 sequence (P41595 whole entry): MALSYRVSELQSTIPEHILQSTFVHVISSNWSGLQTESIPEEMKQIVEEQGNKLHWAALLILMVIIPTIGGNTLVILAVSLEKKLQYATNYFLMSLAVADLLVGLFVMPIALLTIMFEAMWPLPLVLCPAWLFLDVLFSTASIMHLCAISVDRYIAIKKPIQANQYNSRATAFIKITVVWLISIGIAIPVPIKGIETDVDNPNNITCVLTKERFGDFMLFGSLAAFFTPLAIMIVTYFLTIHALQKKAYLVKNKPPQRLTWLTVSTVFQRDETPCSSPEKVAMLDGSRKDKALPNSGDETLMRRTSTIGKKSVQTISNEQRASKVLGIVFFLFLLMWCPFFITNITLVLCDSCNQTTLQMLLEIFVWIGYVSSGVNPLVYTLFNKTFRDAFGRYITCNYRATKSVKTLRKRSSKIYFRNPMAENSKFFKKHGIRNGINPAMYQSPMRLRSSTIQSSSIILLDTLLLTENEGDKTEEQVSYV
T2 sequence (P28223 whole entry): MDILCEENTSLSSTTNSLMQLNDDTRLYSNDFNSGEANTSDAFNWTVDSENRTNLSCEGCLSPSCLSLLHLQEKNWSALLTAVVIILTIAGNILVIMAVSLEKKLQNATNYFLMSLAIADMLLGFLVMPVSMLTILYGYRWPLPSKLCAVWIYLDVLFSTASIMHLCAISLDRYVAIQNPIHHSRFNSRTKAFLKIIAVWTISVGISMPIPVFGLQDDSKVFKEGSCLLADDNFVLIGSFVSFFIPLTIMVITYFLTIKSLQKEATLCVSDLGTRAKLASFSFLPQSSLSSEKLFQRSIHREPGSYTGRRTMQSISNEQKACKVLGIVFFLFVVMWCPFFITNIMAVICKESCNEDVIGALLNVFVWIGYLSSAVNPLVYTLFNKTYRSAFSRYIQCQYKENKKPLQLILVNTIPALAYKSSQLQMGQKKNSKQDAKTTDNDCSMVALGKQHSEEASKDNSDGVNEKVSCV

| SMILES | Emax (5-HT2B [3]) [%] | Emax (5-HT2C [1]) [%] | Emax (5-HT2A [2]) [%] | IC50 (5-HT2C [1]) [nM] | IC50 (5-HT2A [2]) [nM] | IC50 (5-HT2B [3]) [nM] | also measured |
| --- | --- | --- | --- | --- | --- | --- | --- |
| CN(C)CCc1cn(C)c2cccc(O)c12 [Example 1, 3-(2-(dimethylamino)ethyl)-1-methyl-1H-indol-4-ol, reference compound] |  |  |  |  |  |  | pEC50 (5-HT2C [1]; found by the inventors, read-out: functional potency at human 5-HT2C receptors): ~8.00; pEC50 (5-HT2A [2]; found by the inventors, read-out: potency at 5-HT2A receptors): ~7.07 |
| CN(C)CCc1cn(C)c2cccc(O)c12 [Example 1, 3-(2-(dimethylamino)ethyl)-1-methyl-1H-indol-4-ol] | 40 | 92 | 73 |  |  |  |  |
| CN(C)CCc1cn(CC(F)F)c2cccc(O)c12 [Example 3, 1-(2,2-difluoroethyl)-3-(2-(dimethylamino)ethyl)-1H-indol-4-ol] |  | 80 | 48 | 2.7 | 188 |  | 5-HT2 Gq Dissociation BRET assay, 5-HT2B, activity class (5-HT2B [3]; Not Active): Not Active |
| CCCn1cc(CCN(C)C)c2c(O)cccc21 [Example 4, 3-(2-(dimethylamino)ethyl)-1-propyl-1H-indol-4-ol] |  | 67 | 37 | 3 | 1150 |  | 5-HT2 Gq Dissociation BRET assay, 5-HT2B, activity class (5-HT2B [3]; Not Active): Not Active |
| CCCCn1cc(CCN(C)C)c2c(O)cccc21 [Example 6, 1-butyl-3-(2-(dimethylamino)ethyl)-1H-indol-4-ol, reference compound] |  | 48 | 18 |  | 1800 |  | 5-HT2 Gq Dissociation BRET assay, 5-HT2B, activity class (5-HT2B [3]): Not Active; pIC50 (5-HT2C [1]): 8.79; pEC50 (5-HT2C [4]): ~6.22 |
| CN(C)CCc1cn(CC2CC2)c2cccc(O)c12 [Example 8, 1-(cyclopropylmethyl)-3-(2-(dimethylamino)ethyl)-1H-indol-4-ol] |  | 50 | 29 | 0.12 | 28 |  | 5-HT2 Gq Dissociation BRET assay, 5-HT2B, activity class (5-HT2B [3]; Not Active): Not Active |
| CN(C)CCc1cn(C2CCC2)c2cccc(O)c12 [Example 9, 1-cyclobutyl-3-(2-(dimethylamino)ethyl)-1H-indol-4-ol] |  | 44 | 53 | 3 | 4050 |  | 5-HT2 Gq Dissociation BRET assay, 5-HT2B, activity class (5-HT2B [3]; Not Active): Not Active |
| CN(C)CCc1cn(C2COC2)c2cccc(O)c12 [Example 10, 3-(2-(dimethylamino)ethyl)-1-(oxetan-3-yl)-1H-indol-4-ol] |  | 60 | 50 | 1070 | 4000 |  | 5-HT2 Gq Dissociation BRET assay, 5-HT2B, activity class (5-HT2B [3]; Not Active): Not Active |
| CCN(C)CCc1cn(C)c2cccc(O)c12 [Example 12, 3-(2-(ethyl(methyl)amino)ethyl)-1-methyl-1H-indol-4-ol hydrochloride] | 44 | 84 | 66 | 2.8 | 133 | 83 |  |
| CC(C)N(C)CCc1cn(C)c2cccc(O)c12 [Example 13, 3-(2-(isopropyl(methyl)amino)ethyl)-1-methyl-1H-indol-4-ol hydrochloride] | 83 | 105 | 85 | 63.5 | 112 | 42.1 |  |
| CC(C)N(CCc1cn(C)c2cccc(O)c12)C(C)C [Example 14, 3-(2-(diisopropylamino)ethyl)-1-methyl-1H-indol-4-ol hydrochloride] | 68 | 98 | 92 | 393 | 253 | 49.1 |  |
| CN(CCc1cn(C)c2cccc(O)c12)CC1CC1 [Example 16, 3-(2-((cyclopropylmethyl)(methyl)amino)ethyl)-1-methyl-1H-indol-4-ol hydrochloride] | 19 | 54 | 55 | 14.9 | 140 | 0.245 |  |
| CN(CCc1cn(C)c2cccc(O)c12)CC(F)F [Example 17, 3-(2-((2,2-difluoroethyl)(methyl)amino)ethyl)-1-methyl-1H-indol-4-ol hydrochloride] | 24 | 66 | 54 | 833 | 8400 | 376 |  |
| CCN(CC)CCc1cn(C)c2cccc(O)c12 [Example 18, 3-(2-(diethylamino)ethyl)-1-methyl-1H-indol-4-ol hydrochloride] | 56 | 70 | 60 | 31 | 241 | 64 |  |
| Cn1cc(CCNCC2CC2)c2c(O)cccc21 [Example 21, 3-(2-((cyclopropylmethyl)amino)ethyl)-1-methyl-1H-indol-4-ol hydrochloride] | 46 | 40 | 61 | 15 | 497 | 328 |  |
| Cn1cc(CCNCC(F)F)c2c(O)cccc21 [Example 22, 3-(2-((2,2-difluoroethyl)amino)ethyl)-1-methyl-1H-indol-4-ol hydrochloride] | 75 | 82 | 78 | 1890 | 4200 | 1420 |  |
| COc1ccccc1CNCCc1cn(C)c2cccc(O)c12 [Example 24, 3-(2-((2-methoxybenzyl)amino)ethyl)-1-methyl-1H-indol-4-ol hydrochloride] | 56 | 115 | 93 | 1.6 | 10 | 8.3 |  |
| COc1ccccc1CN(C)CCc1cn(C)c2cccc(O)c12 [Example 25, 3-(2-((2-methoxybenzyl)(methyl)amino)ethyl)-1-methyl-1H-indol-4-ol hydrochloride] | 14 | 70 | 39 | 2.4 | 770 | 4000 |  |
| C[C@H]1CNCCc2ccc(Cl)cc21 [Locaserin] |  |  |  |  |  |  | risk of cardiac valvulopathy (patients): no increased risk of cardiac valvulopathy |
| CN(C)CCc1c[nH]c2cccc(O)c12 [Psilocin, psilocin] |  |  |  |  |  |  | % efficacy vs 5-HT@ 100%, 5-HT2B (5-HT2B [3]): 1.07 nM (63%); Efficacy (in parentheses), 5-HT2A (5-HT2A [5]): 43%; Efficacy (in parentheses), 5-HT2B (5-HT2B [6]): 45%; pKi (5-HT3): < 5.00; effect on dopamine receptors (dopamine receptors): no significant effect on dopamine receptors |
